From ChEMBL document CHEMBL3817771, “Structure-Based Design of Peptidic Inhibitors of the Interaction between CC Chemokine Ligand 5 (CCL5) and Human Neutrophil Peptides 1 (HNP1)” (J Med Chem, 2016) come the findings set out here.

Calls of active or inactive are those of the source. The rule behind the calls is not given here. Peptide text beside a SMILES is read from it.

T1 sequence (P13501 whole entry, looked up): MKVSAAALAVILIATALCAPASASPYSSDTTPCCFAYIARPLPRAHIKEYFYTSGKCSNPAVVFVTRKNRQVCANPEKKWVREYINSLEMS
T1 sequence (P59665 whole entry, looked up): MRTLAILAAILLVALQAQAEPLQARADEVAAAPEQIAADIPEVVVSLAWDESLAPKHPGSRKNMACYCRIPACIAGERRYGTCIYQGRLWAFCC

The first assay has as its target T1, C-C motif chemokine 5/Neutrophil defensin 1 (Defensin, alpha 1) (Homo sapiens) (UniProt P13501+P59665). In words: Inhibition of CCL5 (unknown origin)-HNP1 (unknown origin) interaction in HUVEC assessed as CCL5-HNP1-driven human monocyte adhesion at 100 ug/ml pre-incubated for 5 mins before human monocyte addition. The class given is cell-based. Also noted: scale not given: the % may be the effect or the level left.
On to H-RRYGTSKYQ-OH, for which the Activity amounted to 11.8%.

For a further assay, the target named is T1, C-C motif chemokine 5/Neutrophil defensin 1 (Defensin, alpha 1) (Homo sapiens). In words: Inhibition of CCL5 (unknown origin)-HNP1 (unknown origin) interaction in HUVEC assessed as reduction in CCL5-HNP1-driven human monocyte adhesion at 100 ug/ml pre-incubated for 5 mins before human monocyte addition. The class given is cell-based.
For the molecule `CC(C)C[C@@H]1NC(=O)[C@H](CCCNC(=N)N)NC(=O)CNC(=O)[C@H](CCC(N)=O)NC(=O)[C@H](Cc2ccc(O)cc2)NC(=O)[C@H](CCCCN)NC(=O)[C@H](C)NC(=O)[C@H]([C@@H](C)O)NC(=O)CNC(=O)[C@H](Cc2ccc(O)cc2)NC(=O)[C@H](CCCNC(=N)N)NC(=O)[C@H](CCCNC(=N)N)NC(=O)[C@@H](N)CSSC[C@@H](C(N)=O)NC(=O)[C@H](C)NC(=O)[C@H](Cc2ccccc2)NC(=O)[C@H](C)NC(=O)[C@H](Cc2c[nH]c3ccccc23)NC1=O` (HELM PEPTIDE1{C.R.R.Y.G.T.A.K.Y.Q.G.R.L.W.A.F.A.C.[am]}$PEPTIDE1,PEPTIDE1,1:R3-18:R3$$$V2.0), the inhibition entry was “Active”.

For H-RRYGTSIYQ-OH, the inhibition entry was “Active”.

With H-RRYGTSKYQ-OH, the inhibition entry was “Active”.

Regarding H-RRYGTSRYQ-OH, the inhibition entry was “Active”.

Take H-TYQRRSGKY-OH: the inhibition entry was “inactive”.

As to H-YQGRLWAFSS-OH, the inhibition result was “Active”.
